Laboratory results from PubChem BioAssay (NCI).
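Method: 48-hour compound exposure of cells in 96-well plates, five concentrations, linear interpolation of endpoints. GI50 marks 50% less growth. TGI: concentration producing complete growth inhibition.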

Experiments:
Assay in all cases: NCI anticancer screen, dose series, 48 h
NCI-H522 lung = tested on: NCI-H522 lung
A549 NSCLC = tested on: A549 NSCLC
NCI-H460 lung = tested on: NCI-H460 lung
OVCAR-8 ovarian = tested on: OVCAR-8 ovarian
HOP-62 NSCLC = tested on: HOP-62 NSCLC
MOLT-4 leukemia = tested on: MOLT-4 leukemia
HT29 colon = tested on: HT29 colon
NCI-H23 lung = tested on: NCI-H23 lung
EKVX NSCLC = tested on: EKVX NSCLC
MDA-MB-231 breast = tested on: MDA-MB-231 breast
K-562 leukemia = tested on: K-562 leukemia
SF-268 CNS = tested on: SF-268 CNS
HL-60(TB) leukemia = tested on: HL-60(TB) leukemia
SF-539 CNS = tested on: SF-539 CNS
SR leukemia = tested on: SR leukemia
SN12C renal = tested on: SN12C renal
BT-549 breast = tested on: BT-549 breast
TK-10 renal = tested on: TK-10 renal
HCT-15 colon = tested on: HCT-15 colon
DU-145 prostate = tested on: DU-145 prostate
OVCAR-3 ovarian = tested on: OVCAR-3 ovarian
SNB-75 CNS = tested on: SNB-75 CNS
M14 melanoma = tested on: M14 melanoma
HS 578T breast = tested on: HS 578T breast
SK-MEL-28 melanoma = tested on: SK-MEL-28 melanoma
UO-31 renal = tested on: UO-31 renal
CCRF-CEM leukemia = tested on: CCRF-CEM leukemia
SK-MEL-2 melanoma = tested on: SK-MEL-2 melanoma
RPMI-8226 leukemia = tested on: RPMI-8226 leukemia
ACHN renal = tested on: ACHN renal
T-47D breast = tested on: T-47D breast
PC-3 prostate = tested on: PC-3 prostate
COLO 205 colon = tested on: COLO 205 colon
SK-OV-3 ovarian = tested on: SK-OV-3 ovarian
CAKI-1 renal = tested on: CAKI-1 renal
UACC-257 melanoma = tested on: UACC-257 melanoma
OVCAR-5 ovarian = tested on: OVCAR-5 ovarian
KM12 colon = tested on: KM12 colon
NCI-H226 lung = tested on: NCI-H226 lung
MCF7 breast = tested on: MCF7 breast
A498 renal = tested on: A498 renal
SNB-19 CNS = tested on: SNB-19 CNS
IGROV1 ovarian = tested on: IGROV1 ovarian
HCT-116 colon = tested on: HCT-116 colon
SK-MEL-5 melanoma = tested on: SK-MEL-5 melanoma
MDA-MB-435 = tested on: MDA-MB-435
SF-295 CNS = tested on: SF-295 CNS
LOX IMVI melanoma = tested on: LOX IMVI melanoma
HCC-2998 colon = tested on: HCC-2998 colon
786-0 renal = tested on: 786-0 renal
U251 CNS = tested on: U251 CNS
SW-620 colon = tested on: SW-620 colon
RXF 393 renal = tested on: RXF 393 renal
OVCAR-4 ovarian = tested on: OVCAR-4 ovarian
MALME-3M melanoma = tested on: MALME-3M melanoma
UACC-62 melanoma = tested on: UACC-62 melanoma
NCI/ADR-RES ovarian = tested on: NCI/ADR-RES ovarian

In the case of `Oc1nc(N2CCOCC2)sc1/C=C1\C=Nc2ccccc21`, the GI50 (NCI-H522 lung) is reported as > 100 µM, the TGI (NCI-H522 lung) is reported as > 100 µM and the GI50 (A549 NSCLC) is reported as > 100 µM. The TGI (A549 NSCLC) was > 100 µM, the GI50 (NCI-H460 lung) was > 100 µM and the TGI (NCI-H460 lung) was > 100 µM. For the same compound, the GI50 (OVCAR-8 ovarian) was > 100 µM, the TGI (OVCAR-8 ovarian) was > 100 µM and the GI50 (HOP-62 NSCLC) was > 100 µM. For the same compound, the TGI (HOP-62 NSCLC) was > 100 µM, the GI50 (MOLT-4 leukemia) was > 100 µM and the TGI (MOLT-4 leukemia) was > 100 µM. For the same compound, the GI50 (HT29 colon) was 65.2 µM, the TGI (HT29 colon) was > 100 µM and the GI50 (NCI-H23 lung) was > 100 µM. For the same compound, the TGI (NCI-H23 lung) was > 100 µM, the GI50 (EKVX NSCLC) was > 100 µM and the TGI (EKVX NSCLC) was > 100 µM. The GI50 (MDA-MB-231 breast) was > 100 µM, the TGI (MDA-MB-231 breast) was > 100 µM and the GI50 (K-562 leukemia) was > 100 µM. For the same compound, the TGI (K-562 leukemia) was > 100 µM, the GI50 (SF-268 CNS) was > 100 µM and the TGI (SF-268 CNS) was > 100 µM. For the same compound, the GI50 (HL-60(TB) leukemia) was > 100 µM, the TGI (HL-60(TB) leukemia) was > 100 µM and the GI50 (SF-539 CNS) was > 100 µM. The TGI (SF-539 CNS) was > 100 µM, the GI50 (SR leukemia) was 82 µM and the TGI (SR leukemia) was > 100 µM. For the same compound, the GI50 (SN12C renal) was > 100 µM, the TGI (SN12C renal) was > 100 µM and the GI50 (BT-549 breast) was > 100 µM. The TGI (BT-549 breast) was > 100 µM, the GI50 (TK-10 renal) was > 100 µM and the TGI (TK-10 renal) was > 100 µM. For the same compound, the GI50 (HCT-15 colon) was > 100 µM, the TGI (HCT-15 colon) was > 100 µM and the GI50 (DU-145 prostate) was > 100 µM. The TGI (DU-145 prostate) was > 100 µM, the GI50 (OVCAR-3 ovarian) was > 100 µM and the TGI (OVCAR-3 ovarian) was > 100 µM. For the same compound, the GI50 (SNB-75 CNS) was 64.8 µM, the TGI (SNB-75 CNS) was > 100 µM and the GI50 (M14 melanoma) was > 100 µM. For the same compound, the TGI (M14 melanoma) was > 100 µM, the GI50 (HS 578T breast) was > 100 µM and the TGI (HS 578T breast) was > 100 µM. For the same compound, the GI50 (SK-MEL-28 melanoma) was > 100 µM, the TGI (SK-MEL-28 melanoma) was > 100 µM and the GI50 (UO-31 renal) was > 100 µM. For the same compound, the TGI (UO-31 renal) was > 100 µM, the GI50 (CCRF-CEM leukemia) was > 100 µM and the TGI (CCRF-CEM leukemia) was > 100 µM. For the same compound, the GI50 (SK-MEL-2 melanoma) was > 100 µM, the TGI (SK-MEL-2 melanoma) was > 100 µM and the GI50 (RPMI-8226 leukemia) was > 100 µM. For the same compound, the TGI (RPMI-8226 leukemia) was > 100 µM, the GI50 (ACHN renal) was > 100 µM and the TGI (ACHN renal) was > 100 µM. For the same compound, the GI50 (T-47D breast) was > 100 µM, the TGI (T-47D breast) was > 100 µM and the GI50 (PC-3 prostate) was > 100 µM. For the same compound, the TGI (PC-3 prostate) was > 100 µM, the GI50 (COLO 205 colon) was > 100 µM and the TGI (COLO 205 colon) was > 100 µM. For the same compound, the GI50 (SK-OV-3 ovarian) was > 100 µM, the TGI (SK-OV-3 ovarian) was > 100 µM and the GI50 (CAKI-1 renal) was > 100 µM. For the same compound, the TGI (CAKI-1 renal) was > 100 µM, the GI50 (UACC-257 melanoma) was > 100 µM and the TGI (UACC-257 melanoma) was > 100 µM. For the same compound, the GI50 (OVCAR-5 ovarian) was > 100 µM, the TGI (OVCAR-5 ovarian) was > 100 µM and the GI50 (KM12 colon) was > 100 µM. The TGI (KM12 colon) was > 100 µM, the GI50 (NCI-H226 lung) was > 100 µM and the TGI (NCI-H226 lung) was > 100 µM. For the same compound, the GI50 (MCF7 breast) was > 100 µM, the TGI (MCF7 breast) was > 100 µM and the GI50 (A498 renal) was > 100 µM. The TGI (A498 renal) was > 100 µM, the GI50 (SNB-19 CNS) was > 100 µM and the TGI (SNB-19 CNS) was > 100 µM. For the same compound, the GI50 (IGROV1 ovarian) was > 100 µM, the TGI (IGROV1 ovarian) was > 100 µM and the GI50 (HCT-116 colon) was > 100 µM. For the same compound, the TGI (HCT-116 colon) was > 100 µM, the GI50 (SK-MEL-5 melanoma) was > 100 µM and the TGI (SK-MEL-5 melanoma) was > 100 µM. For the same compound, the GI50 (MDA-MB-435) was > 100 µM, the TGI (MDA-MB-435) was > 100 µM and the GI50 (SF-295 CNS) was > 100 µM. The TGI (SF-295 CNS) was > 100 µM, the GI50 (LOX IMVI melanoma) was > 100 µM and the TGI (LOX IMVI melanoma) was > 100 µM. The GI50 (HCC-2998 colon) was > 100 µM, the TGI (HCC-2998 colon) was > 100 µM and the GI50 (786-0 renal) was > 100 µM. The TGI (786-0 renal) was > 100 µM, the GI50 (U251 CNS) was > 100 µM and the TGI (U251 CNS) was > 100 µM. For the same compound, the GI50 (SW-620 colon) was > 100 µM, the TGI (SW-620 colon) was > 100 µM and the GI50 (RXF 393 renal) was > 100 µM. The TGI (RXF 393 renal) was > 100 µM, the GI50 (OVCAR-4 ovarian) was > 100 µM and the TGI (OVCAR-4 ovarian) was > 100 µM. For the same compound, the GI50 (MALME-3M melanoma) was > 100 µM, the TGI (MALME-3M melanoma) was > 100 µM and the GI50 (UACC-62 melanoma) was > 100 µM. For the same compound, the TGI (UACC-62 melanoma) was > 100 µM, the GI50 (NCI/ADR-RES ovarian) was > 100 µM and the TGI (NCI/ADR-RES ovarian) was > 100 µM.
